The record followed here is patent US8846698B2, “Pyrrolo[2,3-d]pyrimidine tropomysin-related kinase inhibitors” (Pfizer Limited, priority 2011, dated 2014).

Series [1] has as its target MDR1 (Homo sapiens (Human), UniProt P08183). The series is described as follows: MDCK-MDR1 assay (in vitro brain penetration). In kind it is in vitro ADME. The following applies: for Papp B→A / Papp A→B: human; for Papp B→A: read-out: MDCK MDR1 Papp BA; for Papp A→B / MDCK MDR1 Papp AB: MDCK-MDR1, A to B; for Papp A→B: read-out: MDCK MDR1 Papp AB. From the text: MDCK-MDR1: MDCK-MDR1 data were collected according to the method described in “Are MDCK Cells Transfected with the Human MDR1 Gene a Good Model of the Human Intestinal Mucosa?”
http://www.springerlink.com/content/qfhqlqbr4fnp3 khf/fulltext.pdf

For series [2], the target named is T1, TRKB (Homo sapiens (Human), UniProt Q16620). The series is described as follows: biochemical.
T1 sequence (Q16620 32-822 limits assumed): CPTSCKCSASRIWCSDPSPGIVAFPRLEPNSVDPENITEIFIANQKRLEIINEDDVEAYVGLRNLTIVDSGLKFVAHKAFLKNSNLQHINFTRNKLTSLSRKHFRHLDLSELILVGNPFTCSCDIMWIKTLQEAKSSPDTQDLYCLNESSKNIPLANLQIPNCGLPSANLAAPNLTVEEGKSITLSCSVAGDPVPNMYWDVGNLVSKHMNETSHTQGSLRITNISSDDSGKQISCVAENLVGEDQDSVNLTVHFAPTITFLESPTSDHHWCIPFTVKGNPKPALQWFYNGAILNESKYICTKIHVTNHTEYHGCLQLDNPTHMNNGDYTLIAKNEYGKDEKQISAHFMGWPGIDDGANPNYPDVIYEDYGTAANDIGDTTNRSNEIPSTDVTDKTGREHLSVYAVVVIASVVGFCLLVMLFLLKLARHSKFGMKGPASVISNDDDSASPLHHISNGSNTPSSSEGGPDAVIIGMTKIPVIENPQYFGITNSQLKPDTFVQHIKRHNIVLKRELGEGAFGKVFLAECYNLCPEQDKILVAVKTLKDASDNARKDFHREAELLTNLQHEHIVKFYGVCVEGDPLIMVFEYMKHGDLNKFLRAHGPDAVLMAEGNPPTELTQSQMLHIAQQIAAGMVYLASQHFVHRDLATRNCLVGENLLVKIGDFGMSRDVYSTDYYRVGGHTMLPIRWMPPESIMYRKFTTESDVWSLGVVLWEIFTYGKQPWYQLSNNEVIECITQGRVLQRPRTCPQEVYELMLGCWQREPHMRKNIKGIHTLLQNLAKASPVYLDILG
Series [3] concerns the target TRKC (Homo sapiens (Human), UniProt Q16288). Description: Cell based DiscoveRx PathHunter antagonist assay, TRKC cell line. The following applies: read-out: TrkC cell potency. As for the experimental part:
(§1) After the Detection Reagent addition, plates are covered and incubated at room temperature for 60 minutes. […] Test compound data are expressed as percentage inhibition defined by HPE and ZPE values for each plate. Percentage inhibition in the presence of test compound is plotted against compound concentration on a log scale to determine an IC50 from the resultant sigmoid curve. Cell Based Assays were carried out using Cell lines from DiscoveRx utilising their PathHunter technology and reagents in an antagonist assay:
(§2) The assays are based upon DiscoveRx's proprietary Enzyme Fragment Complementation (EFC) technology. In the case of the TRK cell lines, the enzyme acceptor (EA) protein is fused to a SH2 protein and the TRK receptor of interest has been tagged with a Prolink tag.
(§3) Upon neurotrophin binding, the TRK receptor becomes phosphorylated, and the tagged SH2 protein binds.
(§4) This means that the IC50 is a good measure of affinity and should be unaffected by concentration neurotrophin stimulant.
(§5) Cryopreserved PathHunter cells are used from either in-house produced batches or bulk batches bought directly from DiscoveRx. Cryopreserved cells are resuscitated, spun 1000 rpm for 4 min to remove freezing media, and resuspended in MEM+0.5% horse serum (both Invitrogen) to 5e^5 cells/ml. The cells are then plated using a Multidrop into Greiner white tissue culture treated plates at 20 ul/well and incubated for 24 h at 37° C., 5% CO2, high humidity. On the day of the assay, the cell plates are allowed to cool to room temperature for 30 min prior to the assay.
(§6) Plates containing 1 ul of serially diluted compound, standard and HPE/ZPE are diluted 1/66 in assay buffer (PBS minus Ca^2+, minus Mg^2+ with 0.05% pluronic F127) using a Wellmate. […] The plates are left at room temperature for a further 2 hours before addition of 10 ul of the DiscoveRx PathHunter detection reagent (made up by adding 1 part Galacton Star, 5 parts Emerald II and 19 parts Cell Assay Buffer as per the manufacturer's instructions).
(§7) After reagent addition, plates are covered and incubated at room temperature for 60 minutes. Luminescence signal is read using an Envision. Test compound data are expressed as percentage inhibition defined by HPE and ZPE values for each plate. Percentage inhibition in the presence of test compound is plotted against compound concentration on a log scale to determine an […] from the resultant sigmoid curve.

Series [4] has as its target T2, TRKA (Homo sapiens (Human), UniProt P04629). The series is described as follows: Cell based DiscoveRx PathHunter antagonist assay, TRKA cell line. The following applies: read-out: TrkA cell potency. As for the experimental part:
as §1, §2, §3, §4, §5, §6, §7
Target sequence in this assay (P04629 33-796): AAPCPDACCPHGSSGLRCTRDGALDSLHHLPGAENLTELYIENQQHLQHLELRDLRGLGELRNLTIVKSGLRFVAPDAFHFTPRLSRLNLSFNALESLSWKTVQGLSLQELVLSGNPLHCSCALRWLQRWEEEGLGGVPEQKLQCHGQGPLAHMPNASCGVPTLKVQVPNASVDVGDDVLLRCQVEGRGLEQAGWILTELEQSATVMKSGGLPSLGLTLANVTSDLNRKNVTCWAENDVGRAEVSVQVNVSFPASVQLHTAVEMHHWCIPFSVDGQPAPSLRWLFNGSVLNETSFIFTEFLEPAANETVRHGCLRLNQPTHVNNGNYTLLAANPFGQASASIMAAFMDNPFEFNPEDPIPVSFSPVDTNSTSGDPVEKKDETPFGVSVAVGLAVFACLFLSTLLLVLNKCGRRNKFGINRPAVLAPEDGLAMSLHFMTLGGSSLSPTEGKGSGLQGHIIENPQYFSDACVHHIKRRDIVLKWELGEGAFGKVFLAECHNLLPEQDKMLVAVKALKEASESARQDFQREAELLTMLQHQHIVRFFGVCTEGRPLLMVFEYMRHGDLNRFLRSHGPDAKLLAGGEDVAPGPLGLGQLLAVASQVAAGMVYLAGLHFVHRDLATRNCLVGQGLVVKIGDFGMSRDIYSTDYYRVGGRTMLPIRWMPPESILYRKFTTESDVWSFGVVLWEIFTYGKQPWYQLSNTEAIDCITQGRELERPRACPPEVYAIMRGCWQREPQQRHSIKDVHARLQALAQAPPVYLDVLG

In series [5] the target is T1, TRKB. The series is described as follows: cell-based. The following applies: TrkB cell potency, TRKB PathHunter cell line. As for the experimental part:
as §1, §2, §3, §4, §5, §6, §7

For series [6], the target named is T2, TRKA. Description: Isolated TRK enzyme assay (HTRF KinEASE-TK), TRKA. The following applies: isolated TRKA enzyme; read-out: TrkA enzyme potency. It is filed as biochemical. Background: In TR-FRET formats the signal depends on donor and acceptor labels being close together.
Target sequence in this assay (P04629 441-796): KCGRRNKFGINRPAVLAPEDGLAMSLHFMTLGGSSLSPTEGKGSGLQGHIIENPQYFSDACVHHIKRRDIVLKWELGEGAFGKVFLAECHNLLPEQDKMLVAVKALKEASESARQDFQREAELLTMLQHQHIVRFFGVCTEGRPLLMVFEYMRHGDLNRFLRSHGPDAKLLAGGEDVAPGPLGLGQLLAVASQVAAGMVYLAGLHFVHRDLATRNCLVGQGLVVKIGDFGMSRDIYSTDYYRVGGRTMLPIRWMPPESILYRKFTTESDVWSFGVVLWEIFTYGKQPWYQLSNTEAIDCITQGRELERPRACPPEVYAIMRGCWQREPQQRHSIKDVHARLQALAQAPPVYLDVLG
Setting [7] is: isolated TRKB enzyme, read-out: TrkB enzyme potency.

Like-named read-outs stand apart in the source and are kept apart here. Where only a bound is given, the exact number is not on record here.

Sequence of TRKC (Q16288 32-839): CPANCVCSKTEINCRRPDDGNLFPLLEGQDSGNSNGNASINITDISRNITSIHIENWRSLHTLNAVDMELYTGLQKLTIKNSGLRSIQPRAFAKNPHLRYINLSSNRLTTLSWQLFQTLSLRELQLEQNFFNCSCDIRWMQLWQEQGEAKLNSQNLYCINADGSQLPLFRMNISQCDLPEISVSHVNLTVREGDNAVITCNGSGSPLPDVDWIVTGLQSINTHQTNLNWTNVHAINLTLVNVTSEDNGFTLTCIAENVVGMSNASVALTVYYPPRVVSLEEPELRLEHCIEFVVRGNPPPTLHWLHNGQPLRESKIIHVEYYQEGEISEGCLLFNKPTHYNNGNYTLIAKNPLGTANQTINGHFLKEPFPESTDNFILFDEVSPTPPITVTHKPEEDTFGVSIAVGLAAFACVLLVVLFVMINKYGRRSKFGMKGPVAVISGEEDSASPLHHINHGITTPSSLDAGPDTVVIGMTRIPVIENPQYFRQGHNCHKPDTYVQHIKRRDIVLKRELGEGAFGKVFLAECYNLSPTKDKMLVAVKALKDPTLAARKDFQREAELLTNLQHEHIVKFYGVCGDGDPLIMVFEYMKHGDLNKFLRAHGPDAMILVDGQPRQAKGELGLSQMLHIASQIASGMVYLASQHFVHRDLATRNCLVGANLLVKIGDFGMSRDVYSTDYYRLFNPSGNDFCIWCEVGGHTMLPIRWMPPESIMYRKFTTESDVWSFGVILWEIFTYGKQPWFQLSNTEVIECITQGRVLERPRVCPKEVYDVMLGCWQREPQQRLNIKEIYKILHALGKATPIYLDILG
Sequence of MDR1 (P08183 whole entry): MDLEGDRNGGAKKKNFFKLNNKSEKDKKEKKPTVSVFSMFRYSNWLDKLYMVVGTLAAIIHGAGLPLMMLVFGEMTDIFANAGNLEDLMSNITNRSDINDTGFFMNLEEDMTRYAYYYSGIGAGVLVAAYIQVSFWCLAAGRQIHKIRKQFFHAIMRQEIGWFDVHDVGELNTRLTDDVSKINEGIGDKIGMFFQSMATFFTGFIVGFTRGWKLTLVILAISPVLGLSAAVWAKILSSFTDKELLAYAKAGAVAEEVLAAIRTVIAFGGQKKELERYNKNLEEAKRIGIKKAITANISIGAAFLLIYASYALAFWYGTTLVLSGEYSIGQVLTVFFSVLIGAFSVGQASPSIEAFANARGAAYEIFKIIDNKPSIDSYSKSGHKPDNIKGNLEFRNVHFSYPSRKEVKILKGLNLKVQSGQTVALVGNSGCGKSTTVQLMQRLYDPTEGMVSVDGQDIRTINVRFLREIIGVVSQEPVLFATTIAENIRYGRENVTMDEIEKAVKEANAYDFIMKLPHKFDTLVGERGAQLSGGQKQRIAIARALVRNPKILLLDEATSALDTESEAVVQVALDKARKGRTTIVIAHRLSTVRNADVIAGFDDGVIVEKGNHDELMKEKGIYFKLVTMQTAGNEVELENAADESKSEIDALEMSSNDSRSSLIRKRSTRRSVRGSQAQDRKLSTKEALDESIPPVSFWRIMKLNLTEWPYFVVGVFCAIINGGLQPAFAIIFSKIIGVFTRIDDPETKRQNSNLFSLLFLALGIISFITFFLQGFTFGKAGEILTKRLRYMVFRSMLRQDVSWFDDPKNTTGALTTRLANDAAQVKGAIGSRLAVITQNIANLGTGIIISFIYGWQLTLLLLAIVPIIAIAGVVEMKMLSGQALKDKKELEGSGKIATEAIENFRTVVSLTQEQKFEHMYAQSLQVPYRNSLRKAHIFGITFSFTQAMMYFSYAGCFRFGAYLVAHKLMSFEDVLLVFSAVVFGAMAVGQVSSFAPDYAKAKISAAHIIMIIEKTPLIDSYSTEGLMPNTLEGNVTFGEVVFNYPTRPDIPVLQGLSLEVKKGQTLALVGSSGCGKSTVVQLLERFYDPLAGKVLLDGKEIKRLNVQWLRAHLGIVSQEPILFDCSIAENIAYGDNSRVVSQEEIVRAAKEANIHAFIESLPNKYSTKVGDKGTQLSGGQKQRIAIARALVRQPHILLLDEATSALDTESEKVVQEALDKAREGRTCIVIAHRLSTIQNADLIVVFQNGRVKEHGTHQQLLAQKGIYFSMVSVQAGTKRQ

Regarding `CC(CO)n1cc(C(=O)c2cncc(NC(=O)Cc3ccc(Cl)cc3)c2)c2cnc(N)nc21` (single isomer, unassigned) [Example 34, N-(5-{[2-Amino-7-(2-hydroxy-1-methylethyl)-7H-pyrrolo[2,3-d]pyrimidin-5-yl]carbonyl}pyridin-3-yl)-2-(4-chlorophenyl)acetamide], in series [1] (MDCK-MDR1, MDCK-MDR1, B to A), the Papp B→A was 11 ×10⁻⁶ cm/s. Moreover, in series [1], the Papp A→B was less than 1 ×10⁻⁶ cm/s. The IC50 in series [2] (setting [7]) was 200 nM; in series [3], 13 nM; in series [4], 23 nM; in series [5], 25 nM; in series [6] it was 3.6 nM.

For `CC(CO)n1cc(C(=O)c2cncc(NC(=O)Cc3ccc(C(F)(F)F)cc3)c2)c2cnc(N)nc21` (single isomer, unassigned) [Example 36, N-(5-{[2-amino-7-(2-hydroxy-1-methylethyl)-7H-pyrrolo[2,3-d]pyrimidin-5-yl]carbonyl}pyridin-3-yl)-2-[4-(trifluoromethyl)phenyl]acetamide], in series [1] (MDCK-MDR1, MDCK-MDR1, B to A), the Papp B→A stood at 12 ×10⁻⁶ cm/s. The Papp A→B in series [1] was less than 1 ×10⁻⁶ cm/s. The IC50 in series [2] (setting [7]) worked out at 303 nM; in series [3], 13 nM; in series [4], 11 nM; in series [5] it was 13 nM; in series [6] it was 4.5 nM.

For the molecule `CC(CO)n1cc(C(=O)c2cncc(NC(=O)Cc3ccc(Cl)cc3)c2)c2cnc(N)nc21` (single isomer, unassigned) [Example 42, N-(5-{[2-amino-7-(2-hydroxy-1-methylethyl)-7H-pyrrolo[2,3-d]pyrimidin-5-yl]carbonyl}pyridin-3-yl)-2-(4-chlorophenyl)acetamide], the “MDCK MDR1 Papp AB” value in series [1] was less than 1 ×10⁻⁶ cm/s. The “MDCK MDR1 Papp BA” value in series [1] (MDCK-MDR1, B to A) came to 9.5 ×10⁻⁶ cm/s. In addition, the IC50 in series [2] (setting [7]) is 191 nM; in series [3], 13 nM; in series [4], 44 nM; in series [5] it was 27 nM; in series [6], 3.8 nM.

Take `CC(CO)n1cc(C(=O)c2cncc(NC(=O)Cc3ccc(C(F)(F)F)cc3)c2)c2cnc(N)nc21` (single isomer, unassigned) [Example 43, N-(5-{[2-amino-7-(2-hydroxy-1-methylethyl)-7H-pyrrolo[2,3-d]pyrimidin-5-yl]carbonyl}pyridin-3-yl)-2-[4-(trifluoromethyl)phenyl]acetamide]: in series [1], the “MDCK MDR1 Papp AB” value was less than 1 ×10⁻⁶ cm/s. For the same molecule, in series [1] (MDCK-MDR1, B to A), the “MDCK MDR1 Papp BA” value was found to be 13 ×10⁻⁶ cm/s. For the same molecule, the IC50 stood at 136 nM in series [2] (setting [7]); 11 nM in series [3]; 17 nM in series [4]; 19 nM in series [5]; 5.1 nM in series [6].

Regarding `CC(C)(C)n1cc(C(=O)c2cncc(NC(=O)Cn3cc(C(F)(F)F)nn3)c2)c2cncnc21` [Example 2, N-{5-[(7-tert-butyl-7H-pyrrolo[2,3-d]pyrimidin-5-yl)carbonyl]pyridin-3-yl}-2-[4-(trifluoromethyl)-1H-1,2,3-triazol-1-yl]acetamide], in series [1], the Papp A→B was less than 1 ×10⁻⁶ cm/s. Further, the Papp B→A in series [1] (MDCK-MDR1, B to A) is 15 ×10⁻⁶ cm/s. Moreover, the IC50 in series [2] (TrkB enzyme potency) was found to be 113 nM; in series [3], 1.1 nM; in series [4] it was 5.3 nM; in series [5], 3.9 nM; in series [6], 8.4 nM.

For `CC(C)(CO)n1cc(C(=O)c2cncc(NC(=O)Cc3ccc(Cl)cc3)c2)c2cncnc21` [Example 28, 2-(4-chlorophenyl)-N-(5-{[7-(2-hydroxy-1,1-dimethylethyl)-7H-pyrrolo[2,3-d]pyrimidin-5-yl]carbonyl}pyridin-3-yl)acetamide], the Papp A→B in series [1] is less than 1 ×10⁻⁶ cm/s. For the same molecule, the Papp B→A in series [1] (MDCK-MDR1, B to A) came to 20 ×10⁻⁶ cm/s. Also, the IC50 in series [2] (TrkB enzyme potency) worked out at 75 nM; in series [4], 2.7 nM; in series [5] it was 1.9 nM; in series [6] it was 4.9 nM.

As for `CC(C)(CO)n1cc(C(=O)c2cncc(NC(=O)Cc3ccc(Cl)cn3)c2)c2cncnc21` [Example 29, 2-(5-chloropyridin-2-yl)-N-(5-{[7-(2-hydroxy-1,1-dimethylethyl)-7H-pyrrolo[2,3-d]pyrimidin-5-yl]carbonyl}pyridin-3-yl)acetamide], the Papp A→B in series [1] is 1.3 ×10⁻⁶ cm/s. Also, the Papp B→A in series [1] (MDCK-MDR1, B to A) came out at 23 ×10⁻⁶ cm/s. Besides, the IC50 in series [2] (TrkB enzyme potency) is 68 nM; in series [4], 5.8 nM; in series [5], 4 nM; in series [6], 2.8 nM.

Take `CC(C)(CO)n1cc(C(=O)c2cncc(NC(=O)Cn3ccc(C(F)(F)F)n3)c2)c2cncnc21` [Example 30, N-(5-{[7-(2-hydroxy-1,1-dimethylethyl)-7H-pyrrolo[2,3-d]pyrimidin-5-yl]carbonyl}pyridin-3-yl)-2-[3-(trifluoromethyl)-1H-pyrazol-1-yl]acetamide]: the Papp A→B in series [1] is less than 1 ×10⁻⁶ cm/s. In addition, in series [1] (MDCK-MDR1, B to A), the Papp B→A came to 15 ×10⁻⁶ cm/s. Moreover, the IC50 amounted to 98 nM in series [2] (TrkB enzyme potency), 11 nM in series [4], 7.5 nM in series [5] and 4 nM in series [6].

Consider `CC(C)(CO)n1cc(C(=O)c2cncc(NC(=O)Cn3cc(C4CC4)cn3)c2)c2cncnc21` [Example 33, 2-(4-cyclopropyl-1H-pyrazol-1-yl)-N-(5-{[7-(2-hydroxy-1,1-dimethylethyl)-7H-pyrrolo[2,3-d]pyrimidin-5-yl]carbonyl}pyridin-3-yl)acetamide], for which the Papp B→A in series [1] (MDCK-MDR1, MDCK-MDR1, B to A) is 24 ×10⁻⁶ cm/s. In addition, in series [1], the Papp A→B amounted to 1 ×10⁻⁶ cm/s. In addition, the IC50 in series [2] (setting [7]) is 96 nM; in series [4] it was 2 nM; in series [5] it was 1.6 nM; in series [6] it was 5.7 nM.

For `Cc1cc(C(F)(F)F)nn1CC(=O)Nc1cncc(C(=O)c2cn(C(C)(C)CO)c3nc(N)ncc23)c1` [Example 47, N-(5-{[2-Amino-7-(2-hydroxy-1,1-dimethylethyl)-7H-pyrrolo[2,3-d]pyrimidin-5-yl]carbonyl}pyridin-3-yl)-2-[5-methyl-3-(trifluoromethyl)-1H-pyrazol-1-yl]acetamide], the Papp B→A in series [1] (MDCK-MDR1, MDCK-MDR1, B to A) stood at 21 ×10⁻⁶ cm/s. The Papp A→B in series [1] was less than 1 ×10⁻⁶ cm/s. The IC50 in series [2] (setting [7]) is 27 nM; in series [4] it was 35 nM; in series [5] it was 13 nM; in series [6], 25 nM.

On to `CC(C)(CO)n1cc(C(=O)c2cncc(NC(=O)Cc3ccc(F)cc3F)c2)c2cnc(N)nc21` [Example 50, N-(5-{[2-amino-7-(2-hydroxy-1,1-dimethylethyl)-7H-pyrrolo[2,3-d]pyrimidin-5-yl]carbonyl}pyridin-3-yl)-2-(2,4-difluorophenyl)acetamide], for which the Papp B→A in series [1] (MDCK-MDR1, MDCK-MDR1, B to A) stood at 24 ×10⁻⁶ cm/s. Moreover, the Papp A→B in series [1] is less than 1 ×10⁻⁶ cm/s. The IC50 was found to be 143 nM in series [2] (setting [7]), 10 nM in series [4], 2.1 nM in series [5] and 6.6 nM in series [6].

For `CC(C)(CO)n1cc(C(=O)c2cncc(NC(=O)Cn3nc4ccccc4n3)c2)c2cnc(N)nc21` [Example 55, N-(5-{[2-Amino-7-(2-hydroxy-1,1-dimethylethyl)-7H-pyrrolo[2,3-d]pyrimidin-5-yl]carbonyl}pyridin-3-yl)-2-(2H-benzotriazol-2-yl)acetamide], the Papp A→B in series [1] was less than 1 ×10⁻⁶ cm/s. Besides, the Papp B→A in series [1] (MDCK-MDR1, B to A) is 20 ×10⁻⁶ cm/s. In addition, the IC50 in series [2] (TrkB enzyme potency) came out at 179 nM; in series [4], 12 nM; in series [5], 4.5 nM; in series [6] it was 7 nM.

In the case of `CC(C)(CO)n1cc(C(=O)c2cncc(NC(=O)Cn3cc(C4CC4)nn3)c2)c2cnc(N)nc21` [Example 56, N-(5-{[2-Amino-7-(2-hydroxy-1,1-dimethylethyl)-7H-pyrrolo[2,3-d]pyrimidin-5-yl]carbonyl}pyridin-3-yl)-2-(4-cyclopropyl-1H-1,2,3-triazol-1-yl)acetamide], the Papp A→B in series [1] was 1.1 ×10⁻⁶ cm/s. In series [1] (MDCK-MDR1, B to A), the Papp B→A was found to be 1 ×10⁻⁶ cm/s. Further, the IC50 came to 962 nM in series [2] (TrkB enzyme potency), 451 nM in series [4], 517 nM in series [5] and 9.5 nM in series [6].
